Experimental data published in US7932270B2 (Cytokinetics, Inc., priority 2006, dated 2011).

biological target: T1, chicken gizzard smooth muscle myosin subfragment-1 chemically crosslinked to cardiac or skeletal actin (Gallus gallus, UniProt P10587); assay: Smooth muscle myosin ATPase dose response assay (pyruvate kinase/horseradish peroxidase/pyruvate oxidase-coupled, amplex red fluorescence); assay type: biochemical; conditions: read-out: IC50 Arithmetic Mean
T1 construct: chicken gizzard smooth muscle myosin subfragment-1; from tissue; host or cells: chicken gizzard
In short: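 ATPase monitored by amplex red fluorescence (ex 480/em 615 nm) via pyruvate oxidase/HRP coupling, pH 7.00, ATP 0.15 mM. Enzyme: smooth muscle S1-actin crosslinked conjugate, amount set empirically by titration. Dose-response fitted with 4-parameter Hill equation for IC50.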

T1 sequence (P02607 2-151): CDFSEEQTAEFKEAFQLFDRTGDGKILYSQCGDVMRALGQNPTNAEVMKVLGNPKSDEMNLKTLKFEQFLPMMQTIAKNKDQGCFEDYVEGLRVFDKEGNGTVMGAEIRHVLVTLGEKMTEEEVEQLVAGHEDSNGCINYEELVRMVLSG
T1 sequence (P10587 84-789): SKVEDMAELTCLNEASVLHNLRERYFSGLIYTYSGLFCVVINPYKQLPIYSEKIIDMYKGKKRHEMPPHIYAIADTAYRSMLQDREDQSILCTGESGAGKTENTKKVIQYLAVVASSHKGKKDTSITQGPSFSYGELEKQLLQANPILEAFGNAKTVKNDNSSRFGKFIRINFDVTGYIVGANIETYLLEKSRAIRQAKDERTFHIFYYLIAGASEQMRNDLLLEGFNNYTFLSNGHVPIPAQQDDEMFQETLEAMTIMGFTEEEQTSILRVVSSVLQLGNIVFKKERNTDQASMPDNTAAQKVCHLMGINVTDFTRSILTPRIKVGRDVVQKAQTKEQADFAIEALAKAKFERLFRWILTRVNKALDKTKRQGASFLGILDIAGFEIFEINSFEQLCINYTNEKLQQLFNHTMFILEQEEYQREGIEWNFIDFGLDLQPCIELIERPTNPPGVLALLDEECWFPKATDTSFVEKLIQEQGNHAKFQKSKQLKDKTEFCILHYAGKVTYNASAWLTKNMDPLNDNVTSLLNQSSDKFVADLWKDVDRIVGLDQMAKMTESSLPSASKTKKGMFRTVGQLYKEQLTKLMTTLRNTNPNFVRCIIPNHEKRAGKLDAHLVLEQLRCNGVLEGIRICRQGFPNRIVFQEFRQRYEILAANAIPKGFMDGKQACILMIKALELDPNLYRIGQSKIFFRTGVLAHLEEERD

| Structure (SMILES) | IC50 |
| --- | --- |
| N#Cc1ccccc1-c1ccc(C(=O)N[C@H](CCCN)C(N)=O)c(NCCc2cccc(F)c2)n1 [N-((1R)-4-amino-1-carbamoylbutyl)(6-(2-cyanophenyl)-2-{[2-(3-fluorophenyl)ethyl]amino}(3-pyridyl))carboxamide] | 7.41 µM |
| N#Cc1ccccc1-c1ccc(C(=O)N[C@H](CCCCN)C(N)=O)c(NCCc2cccc(F)c2)n1 [N-((1R)-5-amino-1-carbamoylpentyl)(6-(2-cyanophenyl)-2-{[2-(3-fluorophenyl)ethyl]amino}(3-pyridyl))carboxamide] | 1.28 µM |
| N#Cc1ccccc1-c1ccc(C(=O)N[C@@H](CO)C(N)=O)c(NCCc2cccc(F)c2)n1 [N-((1S)-1-carbamoyl-2-hydroxyethyl)(6-(2-cyanophenyl)-2-{[2-(3-fluorophenyl)ethyl]amino}(3-pyridyl))carboxamide] | 1.02 µM |
| N#Cc1ccccc1-c1ccc(C(=O)NC[C@@H](CO)NC(=O)CN)c(NCCc2cccc(F)c2)n1 [N-((1S)-1-{[(6-(2-cyanophenyl)-2-{[2-(3-fluorophenyl)ethyl]amino}(3-pyridyl))carbonylamino]methyl}-2-hydroxyethyl)-2-aminoacetamide] | 0.249 µM |
| N#Cc1ccccc1-c1ccc(C(=O)N[C@@H](CN)C(N)=O)c(NCCc2cccc(F)c2)n1 [N-((1S)-2-amino-1-carbamoylethyl)(6-(2-cyanophenyl)-2-{[2-(3-fluorophenyl)ethyl]amino}(3-pyridyl))carboxamide] | 0.816 µM |
| N#Cc1ccccc1-c1ccc(C(=O)N[C@@H](CCCN)C(N)=O)c(NCCc2cccc(F)c2)n1 [N-((1S)-4-amino-1-carbamoylbutyl)(6-(2-cyanophenyl)-2-{[2-(3-fluorophenyl)ethyl]amino}(3-pyridyl))carboxamide] | 5.4 µM |
| N#Cc1ccccc1-c1ccc(C(=O)N[C@@H](CCCCN)C(N)=O)c(NCCc2cccc(F)c2)n1 [N-((1S)-5-amino-1-carbamoylpentyl)(6-(2-cyanophenyl)-2-{[2-(3-fluorophenyl)ethyl]amino}(3-pyridyl))carboxamide] | 4.42 µM |
| N#Cc1ccccc1-c1ccc(C(=O)NC[C@@H](N)C(N)=O)c(NCCc2cccc(F)c2)n1 [N-((2R)-2-amino-2-carbamoylethyl)(6-(2-cyanophenyl)-2-{[2-(3-fluorophenyl)ethyl]amino}(3-pyridyl))carboxamide] | 0.321 µM |
| Cn1cc(-c2nc(NCCc3cccc(F)c3)c(C(=O)NC[C@@H](N)CO)cc2F)cn1 [N-((2R)-2-amino-3-hydroxypropyl)(5-fluoro-2-{[2-(3-fluorophenyl)ethyl]amino}-6-(1-methylpyrazol-4-yl)(3-pyridyl))carboxamide] | 1.26 µM |
| N[C@@H](CO)CNC(=O)c1cc(F)c(-c2cn[nH]c2)nc1NCCc1cccc(F)c1 [N-((2R)-2-amino-3-hydroxypropyl)(5-fluoro-2-{[2-(3-fluorophenyl)ethyl]amino}-6-pyrazol-4-yl(3-pyridyl))carboxamide] | 1.82 µM |
| CC(C)C[C@@H](N)CNC(=O)c1ccc(-c2ccccc2C#N)nc1NCCc1cccc(F)c1 [N-((2R)-2-amino-4-methylpentyl)(6-(2-cyanophenyl)-2-{[2-(3-fluorophenyl)ethyl]amino}(3-pyridyl))carboxamide] | 1.24 µM |
| C[C@@H](N)CNC(=O)c1cc(F)c(-c2cnn(C)c2)nc1NCCc1cccc(F)c1 [N-((2R)-2-aminopropyl)(5-fluoro-2-{[2-(3-fluorophenyl)ethyl]amino}-6-(1-methylpyrazol-4-yl)(3-pyridyl))carboxamide] | 0.398 µM |
| C[C@@H](N)CNC(=O)c1cc(F)c(-c2cn[nH]c2)nc1NCCc1cccc(F)c1 [N-((2R)-2-aminopropyl)(5-fluoro-2-{[2-(3-fluorophenyl)ethyl]amino}-6-pyrazol-4-yl(3-pyridyl))carboxamide] | 0.443 µM |
| C[C@@H](N)CNC(=O)c1ccc(-c2ccccc2C#N)nc1NCCc1cccc(F)c1 [N-((2R)-2-aminopropyl)(6-(2-cyanophenyl)-2-{[2-(3-fluorophenyl)ethyl]amino}(3-pyridyl))carboxamide] | 0.399 µM |
| C[C@H](CNC(=O)c1cc(F)c(-c2cnn(C)c2)nc1NCCc1cccc(F)c1)C(N)=O [N-((2R)-2-carbamoylpropyl)(5-fluoro-2-{[2-(3-fluorophenyl)ethyl]amino}-6-(1-methylpyrazol-4-yl)(3-pyridyl))carboxamide] | 0.089 µM |
| CC[C@@H](CO)CNC(=O)c1cc(F)c(-c2cnn(C)c2)nc1NCCc1cccc(F)c1 [N-((2R)-2-ethyl-3-hydroxypropyl)(5-fluoro-2-{[2-(3-fluorophenyl)ethyl]amino}-6-(1-methylpyrazol-4-yl)(3-pyridyl))carboxamide] | 0.039 µM |
| CC[C@@H](CO)CNC(=O)c1cc(F)c(-c2cn[nH]c2)nc1NCCc1cccc(F)c1 [N-((2R)-2-ethyl-3-hydroxypropyl)(5-fluoro-2-{[2-(3-fluorophenyl)ethyl]amino}-6-pyrazol-4-yl(3-pyridyl))carboxamide] | 0.052 µM |
| CC(=O)[C@H](C)CNC(=O)c1cc(F)c(-c2cnn(C)c2)nc1NCCc1cccc(F)c1 [N-((2R)-2-methyl-3-oxobutyl)(5-fluoro-2-{[2-(3-fluorophenyl)ethyl]amino}-6-(1-methylpyrazol-4-yl)(3-pyridyl))carboxamide] | 0.109 µM |

| Structure (SMILES) | IC50 |
| --- | --- |
| C[C@H](CNC(=O)c1cc(F)c(-c2cnn(C)c2)nc1NCCc1cccc(F)c1)C(C)(C)O [N-((2R)-3-hydroxy-2,3-dimethylbutyl)(5-fluoro-2-{[2-(3-fluorophenyl)ethyl]amino}-6-(1-methylpyrazol-4-yl)(3-pyridyl))carboxamide] | 1.23 µM |
| CC(O)[C@H](C)CNC(=O)c1cc(F)c(-c2cnn(C)c2)nc1NCCc1cccc(F)c1 (stereo partly drawn) [N-((2R)-3-hydroxy-2-methylbutyl)(5-fluoro-2-{[2-(3-fluorophenyl)ethyl]amino}-6-(1-methylpyrazol-4-yl)(3-pyridyl))carboxamide] | 0.283 µM |
| C[C@@H](CO)CNC(=O)c1cc(F)c(-c2cnn(C)c2)nc1NCCc1cccc(F)c1 [N-((2R)-3-hydroxy-2-methylpropyl)(5-fluoro-2-{[2-(3-fluorophenyl)ethyl]amino}-6-(1-methylpyrazol-4-yl)(3-pyridyl))carboxamide] | 0.05 µM |
| C[C@@H](CO)CNC(=O)c1cc(F)c(-c2cn[nH]c2)nc1NCCc1cccc(F)c1 [N-((2R)-3-hydroxy-2-methylpropyl)(5-fluoro-2-{[2-(3-fluorophenyl)ethyl]amino}-6-pyrazol-4-yl(3-pyridyl))carboxamide] | 0.059 µM |
| C[C@@H](CO)CNC(=O)c1ccc(-c2ccccc2C#N)nc1NCCc1cccc(F)c1 [N-((2R)-3-hydroxy-2-methylpropyl)(6-(2-cyanophenyl)-2-{[2-(3-fluorophenyl)ethyl]amino}(3-pyridyl))carboxamide] | 0.061 µM |
| C[C@@H](CN=[N+]=[N-])CNC(=O)c1cc(F)c(-c2cnn(C)c2)nc1NCCc1cccc(F)c1 [N-((2R)-4-diazo-2-methyl-4-azabut-4-enyl)(5-fluoro-2-{[2-(3-fluorophenyl)ethyl]amino}-6-(1-methylpyrazol-4-yl)(3-pyridyl))carboxamide] | 0.118 µM |
| N#Cc1ccccc1-c1ccc(C(=O)NC[C@H](N)C(N)=O)c(NCCc2cccc(F)c2)n1 [N-((2S)-2-amino-2-carbamoylethyl)(6-(2-cyanophenyl)-2-{[2-(3-fluorophenyl)ethyl]amino}(3-pyridyl))carboxamide] | 0.669 µM |
| N#Cc1ccccc1-c1ccc(C(=O)NC[C@H](N)CO)c(NCCc2cccc(F)c2)n1 [N-((2S)-2-amino-3-hydroxypropyl)(6-(2-cyanophenyl)-2-{[2-(3-fluorophenyl)ethyl]amino}(3-pyridyl))carboxamide] | 1.59 µM |
| C[C@H](N)CNC(=O)c1ccc(-c2ccccc2C#N)nc1NCCc1cccc(F)c1 [N-((2S)-2-aminopropyl)(6-(2-cyanophenyl)-2-{[2-(3-fluorophenyl)ethyl]amino}(3-pyridyl))carboxamide] | 0.515 µM |
| C[C@@H](CN)CNC(=O)c1cc(F)c(-c2cnn(C)c2)nc1NCCc1cccc(F)c1 [N-((2S)-3-amino-2-methylpropyl)(5-fluoro-2-{[2-(3-fluorophenyl)ethyl]amino}-6-(1-methylpyrazol-4-yl)(3-pyridyl))carboxamide] | 1.05 µM |
| C[C@H](CO)CNC(=O)c1cc(F)c(-c2cnn(C)c2)nc1NCCc1cccc(F)c1 [N-((2S)-3-hydroxy-2-methylpropyl)(5-fluoro-2-{[2-(3-fluorophenyl)ethyl]amino}-6-(1-methylpyrazol-4-yl)(3-pyridyl))carboxamide] | 0.09 µM |
| N#Cc1ccccc1-c1ccc(C(=O)N[C@@H]2CCCNC2=O)c(NCCc2cccc(F)c2)n1 [N-((3R)-2-oxo(3-piperidyl))(6-(2-cyanophenyl)-2-{[2-(3-fluorophenyl)ethyl]amino}(3-pyridyl))carboxamide] | 0.352 µM |
| N#Cc1ccccc1-c1ccc(C(=O)N[C@H]2CCCNC2=O)c(NCCc2cccc(F)c2)n1 [N-((3S)-2-oxo(3-piperidyl))(6-(2-cyanophenyl)-2-{[2-(3-fluorophenyl)ethyl]amino}(3-pyridyl))carboxamide] | 5.61 µM |
| N#Cc1ccccc1-c1ccc(C(=O)N[C@H]2CCNC2=O)c(NCCc2cccc(F)c2)n1 [N-((3S)-2-oxopyrrolidin-3-yl)(6-(2-cyanophenyl)-2-{[2-(3-fluorophenyl)ethyl]amino}(3-pyridyl))carboxamide] | 3.25 µM |
| N#Cc1ccccc1-c1ccc(C(=O)NCC2CCCCCN2)c(NCCc2cccc(F)c2)n1 (centres unmarked) [N-(azaperhydroepin-2-ylmethyl)(6-(2-cyanophenyl)-2-{[2-(3-fluorophenyl)ethyl]amino}(3-pyridyl))carboxamide] | 2.5 µM |
| NC(=O)CNC(=O)c1ccc(-c2ccc(CO)s2)nc1NCCc1cccc(F)c1 [N-(carbamoylmethyl)(2-{[2-(3-fluorophenyl)ethyl]amino}-6-[5-(hydroxymethyl)(2-thienyl)](3-pyridyl))carboxamide] | 0.496 µM |
| NC(=O)CNC(=O)c1cc(F)c(-c2cn[nH]c2)nc1NCCc1cccc(F)c1 [N-(carbamoylmethyl)(5-fluoro-2-{[2-(3-fluorophenyl)ethyl]amino}-6-pyrazol-4-yl(3-pyridyl))carboxamide] | 0.14 µM |
